The values below come from ChEMBL document CHEMBL1909046, “DrugMatrix in vitro pharmacology data”.

Assay [1] addresses T1, Type-2 angiotensin II receptor (Homo sapiens, UniProt P50052).
T1 sequence (P50052 whole entry): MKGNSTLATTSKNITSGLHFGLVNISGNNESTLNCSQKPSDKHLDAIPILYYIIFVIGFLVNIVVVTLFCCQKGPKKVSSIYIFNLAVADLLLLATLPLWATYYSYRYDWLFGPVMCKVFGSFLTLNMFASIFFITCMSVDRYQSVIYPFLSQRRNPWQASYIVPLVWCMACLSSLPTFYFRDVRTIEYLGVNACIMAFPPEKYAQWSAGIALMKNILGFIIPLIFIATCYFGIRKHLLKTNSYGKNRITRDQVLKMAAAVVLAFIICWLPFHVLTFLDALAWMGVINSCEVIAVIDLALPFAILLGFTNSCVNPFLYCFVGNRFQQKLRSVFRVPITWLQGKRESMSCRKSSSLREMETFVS
It counts as cell-based. Particulars: cho-k1.

The target in a further assay is T2, Neutrophil elastase (Homo sapiens, UniProt P08246).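 Also: inhibition of neutrophil elastase enzyme activity, measured with a p-nitroanilide-linked peptide substrate; in other assays of this panel Not Active means under 50% inhibition at 10 µM.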
T2 sequence (P08246 whole entry): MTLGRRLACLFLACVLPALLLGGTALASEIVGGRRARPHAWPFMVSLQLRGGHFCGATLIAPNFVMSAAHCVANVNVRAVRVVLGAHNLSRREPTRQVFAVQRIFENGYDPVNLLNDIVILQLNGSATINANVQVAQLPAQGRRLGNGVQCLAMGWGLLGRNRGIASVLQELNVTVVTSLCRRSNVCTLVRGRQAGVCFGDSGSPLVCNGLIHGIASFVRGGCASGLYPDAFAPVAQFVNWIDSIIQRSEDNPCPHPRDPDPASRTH
It counts as tissue-based.

The target of assay [2] is T3, Alpha-1B adrenergic receptor (Rattus norvegicus, UniProt P15823).
T3 sequence (P15823 whole entry): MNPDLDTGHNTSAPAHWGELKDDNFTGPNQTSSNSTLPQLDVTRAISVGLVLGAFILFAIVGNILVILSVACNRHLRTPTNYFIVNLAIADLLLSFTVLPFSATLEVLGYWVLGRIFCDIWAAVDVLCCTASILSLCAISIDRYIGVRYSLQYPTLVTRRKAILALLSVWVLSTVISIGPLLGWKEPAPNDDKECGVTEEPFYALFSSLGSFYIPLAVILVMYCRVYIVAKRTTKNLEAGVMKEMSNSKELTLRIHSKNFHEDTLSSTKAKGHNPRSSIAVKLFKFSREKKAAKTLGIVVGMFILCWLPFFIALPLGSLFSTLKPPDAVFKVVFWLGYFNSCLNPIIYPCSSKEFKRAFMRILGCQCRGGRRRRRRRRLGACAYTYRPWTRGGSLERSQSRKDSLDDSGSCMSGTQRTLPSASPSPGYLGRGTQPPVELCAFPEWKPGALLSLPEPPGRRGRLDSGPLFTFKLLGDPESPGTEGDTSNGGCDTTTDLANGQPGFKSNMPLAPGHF
The experiment in a line: DRUGMATRIX: Alpha-1B adrenergic receptor radioligand binding (ligand: prazosin). The assay is classed as cell membranes, Wistar, Liver, Membrane. The note with it: Not Active = under 50% inhibition at 10 µM.

Assay [3] in a line: DRUGMATRIX: Imidazoline I2, Central radioligand binding (ligand: [3H] Idazoxan). The assay is classed as cell membranes, Rattus norvegicus, Wistar, Cerebral cortex, Membrane. The note with it: Not Active = under 50% inhibition at 10 µM.
In assay [4] the target is T4, 5-hydroxytryptamine receptor 1A (Rattus norvegicus, UniProt P19327). Also: in other assays of this panel Not Active means under 50% inhibition at 10 µM.
T4 sequence (P19327 whole entry): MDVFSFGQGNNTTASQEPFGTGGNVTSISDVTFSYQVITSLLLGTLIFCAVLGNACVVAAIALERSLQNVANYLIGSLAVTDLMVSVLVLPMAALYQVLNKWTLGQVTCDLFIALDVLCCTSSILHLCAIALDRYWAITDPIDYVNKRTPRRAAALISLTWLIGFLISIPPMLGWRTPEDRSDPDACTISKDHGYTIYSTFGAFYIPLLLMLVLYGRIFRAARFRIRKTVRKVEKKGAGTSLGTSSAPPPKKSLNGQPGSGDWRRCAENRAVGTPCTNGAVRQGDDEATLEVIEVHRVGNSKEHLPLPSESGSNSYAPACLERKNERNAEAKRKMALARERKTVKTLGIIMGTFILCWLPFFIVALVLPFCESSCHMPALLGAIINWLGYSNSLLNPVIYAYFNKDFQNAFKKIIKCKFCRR
It counts as cell membranes, CHO-K1, Membrane. The note with it: for Ki: read-out: Ki.

A further assay deals with D(1A) dopamine receptor (Homo sapiens, UniProt P21728). The experiment in a line: DRUGMATRIX: Dopamine D1 radioligand binding (ligand: [3H] SCH-23390). The note with it: cho; Not Active = under 50% inhibition at 10 µM. It counts as cell membranes, CHO, Membrane.
The target of assay [5] is T5, C-X-C chemokine receptor type 2 (Homo sapiens, UniProt P25025). Also: in other assays of this panel Not Active means under 50% inhibition at 10 µM.
T5 sequence (P25025 whole entry): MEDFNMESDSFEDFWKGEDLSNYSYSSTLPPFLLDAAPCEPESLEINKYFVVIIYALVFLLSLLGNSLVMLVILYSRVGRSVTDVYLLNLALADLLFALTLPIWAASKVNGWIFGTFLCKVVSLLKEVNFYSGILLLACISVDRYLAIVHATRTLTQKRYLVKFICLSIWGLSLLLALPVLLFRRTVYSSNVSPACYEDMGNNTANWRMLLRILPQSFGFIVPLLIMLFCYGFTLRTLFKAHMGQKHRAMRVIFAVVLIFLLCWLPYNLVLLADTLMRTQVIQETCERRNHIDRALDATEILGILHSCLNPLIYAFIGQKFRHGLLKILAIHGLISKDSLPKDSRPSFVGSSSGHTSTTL
The assay is classed as cell membranes, Membrane. Particulars: cho-k1.

The next assay concerns the target T6, Glucocorticoid receptor (Homo sapiens, UniProt P04150). Also: in other assays of this panel Not Active means under 50% inhibition at 10 µM.
T6 sequence (P04150 whole entry): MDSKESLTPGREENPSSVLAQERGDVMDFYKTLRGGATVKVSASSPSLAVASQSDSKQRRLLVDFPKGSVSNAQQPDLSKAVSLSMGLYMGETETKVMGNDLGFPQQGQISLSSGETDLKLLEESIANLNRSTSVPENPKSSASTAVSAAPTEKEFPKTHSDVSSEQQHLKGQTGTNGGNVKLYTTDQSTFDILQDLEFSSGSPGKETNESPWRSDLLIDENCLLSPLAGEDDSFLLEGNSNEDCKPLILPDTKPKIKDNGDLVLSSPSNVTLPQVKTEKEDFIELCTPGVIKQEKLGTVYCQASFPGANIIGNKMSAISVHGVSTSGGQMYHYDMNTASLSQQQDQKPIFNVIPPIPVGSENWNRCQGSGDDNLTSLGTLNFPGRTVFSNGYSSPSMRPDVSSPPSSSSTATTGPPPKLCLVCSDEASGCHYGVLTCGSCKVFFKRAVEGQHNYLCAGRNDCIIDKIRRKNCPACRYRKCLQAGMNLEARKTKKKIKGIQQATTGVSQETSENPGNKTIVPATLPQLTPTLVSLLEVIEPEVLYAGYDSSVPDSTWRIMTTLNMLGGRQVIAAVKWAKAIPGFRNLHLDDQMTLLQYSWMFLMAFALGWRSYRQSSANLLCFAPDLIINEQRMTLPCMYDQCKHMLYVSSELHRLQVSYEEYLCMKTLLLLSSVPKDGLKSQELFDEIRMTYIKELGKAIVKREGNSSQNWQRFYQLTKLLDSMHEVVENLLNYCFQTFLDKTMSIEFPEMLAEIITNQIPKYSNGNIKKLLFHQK
The note with it: hela s3.

Chain of D(1A) dopamine receptor (P21728 whole entry): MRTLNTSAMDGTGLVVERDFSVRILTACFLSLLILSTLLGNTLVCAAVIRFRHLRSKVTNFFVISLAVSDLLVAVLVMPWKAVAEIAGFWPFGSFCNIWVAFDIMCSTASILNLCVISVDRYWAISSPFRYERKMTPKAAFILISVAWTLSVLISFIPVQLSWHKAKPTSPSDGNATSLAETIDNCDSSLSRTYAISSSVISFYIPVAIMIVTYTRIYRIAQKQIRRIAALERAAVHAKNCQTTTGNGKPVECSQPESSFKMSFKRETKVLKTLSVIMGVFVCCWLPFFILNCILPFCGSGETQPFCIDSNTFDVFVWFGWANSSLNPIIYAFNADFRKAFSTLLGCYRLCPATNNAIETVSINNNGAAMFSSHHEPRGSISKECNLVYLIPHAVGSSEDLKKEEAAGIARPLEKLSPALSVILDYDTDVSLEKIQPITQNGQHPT

Regarding `COc1ccc2cc(CC(=O)O)ccc2c1`, the IC50 entry (in assay [1]; against Neutrophil elastase; in assay [2]; in assay [3]; in assay [4] (cho-k1); at D(1A) dopamine receptor) was “Not Active” throughout. For the same compound, the IC50 entry (in assay [5]; at Glucocorticoid receptor) was “Not Active” throughout. In assay [3], the Ki entry was “Not Active”.

Turning to `CC(C)NC[C@H](O)COc1cccc2[nH]ccc12`, the IC50 entry in assay [1] is “Not Active”; at Neutrophil elastase it was “Not Active”; in assay [2], “Not Active”; in assay [3], “Not Active”; in assay [4] (read-out: IC50), 28 nM; at D(1A) dopamine receptor it was “Not Active”. The IC50 entry (in assay [5]; against Glucocorticoid receptor) was “Not Active” each time. Moreover, the Ki result is “Not Active” in assay [3] and 16 nM in assay [4].

`c1ccc2c(c1)cc1ccc3cccc4ccc2c1c34`: the half-maximal inhibitory concentration (IC50) result (in assay [1]; against Neutrophil elastase; in assay [2]; in assay [3]; in assay [4] (cho-k1); on D(1A) dopamine receptor) was “Not Active” in each case. The IC50 result (in assay [5]; on Glucocorticoid receptor) was “Not Active” throughout. In addition, in assay [3], the Ki result is recorded as “Not Active”.

Take `CC=CC(=O)N(CC)c1ccccc1C`: the IC50 result (in assay [1]; on Neutrophil elastase; in assay [2]; in assay [3]; in assay [4] (cho-k1); on D(1A) dopamine receptor) was “Not Active” in each case. The IC50 result (in assay [5]; against Glucocorticoid receptor) was “Not Active” in each case. In addition, in assay [3], the Ki entry was “Not Active”.

For the compound `C=C1C(=O)O[C@@H]2C3O[C@]3(C)CC/C=C(\C)CC[C@@H]12` (stereo not given in full), the IC50 entry (in assay [1]; on Neutrophil elastase; in assay [2]; in assay [3]; in assay [4] (cho-k1); at D(1A) dopamine receptor) was “Not Active” in each case. Besides, the IC50 result (in assay [5]; at Glucocorticoid receptor) was “Not Active” in each case. Also, the Ki result in assay [3] was “Not Active”.

In the case of `COc1ccc2c(c1)c(CC(=O)OCC(=O)O)c(C)n2C(=O)c1ccc(Cl)cc1` [ACEMETACIN], the IC50 result (in assay [1]; on Neutrophil elastase; in assay [2]; in assay [3]; in assay [4] (cho-k1); on D(1A) dopamine receptor) was “Not Active” throughout. Further, the IC50 result (in assay [5]; on Glucocorticoid receptor) was “Not Active” each time. For the same compound, the inhibition constant Ki result in assay [3] is “Not Active”.

For the compound `CCCSc1ccc2nc(NC(=O)OC)[nH]c2c1` [ALBENDAZOLE], the IC50 entry (in assay [1]; against Neutrophil elastase; in assay [2]; in assay [3]; in assay [4] (cho-k1); at D(1A) dopamine receptor) was “Not Active” each time. In addition, the IC50 entry (in assay [5]; on Glucocorticoid receptor) was “Not Active” in each case. Moreover, in assay [3], the Ki entry is on record as “Not Active”.

Turning to `Cc1ccccc1N1CCN(CCc2nnc3n2CCCC3)CC1` [DAPIPRAZOLE], the IC50 entry was “Not Active” in assay [1]; “Not Active” on Neutrophil elastase; “Not Active” in assay [3]; 2060 nM in assay [4] (read-out: IC50); “Not Active” on D(1A) dopamine receptor; “Not Active” in assay [5]. Also, the IC50 entry at Glucocorticoid receptor was “Not Active”. For the same compound, the Ki result is “Not Active” in assay [3] and 1180 nM in assay [4].

For `CN1CCC[C@H]1c1cccnc1` [NICOTINE], the IC50 result (in assay [1]; at Neutrophil elastase; in assay [2]; in assay [3]; in assay [4] (cho-k1); at D(1A) dopamine receptor) was “Not Active” throughout. Besides, the IC50 result in assay [5] was “Not Active”. In assay [3], the Ki entry was “Not Active”.

As to `CC1COc2c(N3CCN(C)CC3)c(F)cc3c(=O)c(C(=O)O)cn1c23` (stereo not given) [OFLOXACIN], the IC50 result (in assay [1]; at Neutrophil elastase; in assay [2]; in assay [3]; in assay [4] (cho-k1); at D(1A) dopamine receptor) was “Not Active” each time. The IC50 entry in assay [5] was “Not Active”. Moreover, the Ki result in assay [3] was “Not Active”.

As to `Oc1cccc2cccnc12` [OXYQUINOLINE], the IC50 result (in assay [1]; against Neutrophil elastase; in assay [2]; in assay [3]; in assay [4] (cho-k1); at D(1A) dopamine receptor) was “Not Active” each time. In addition, in assay [5], the IC50 result was “Not Active”. Besides, the inhibitory constant (Ki) entry in assay [3] is “Not Active”.

For the compound `CCCc1cc(=O)[nH]c(=S)[nH]1` [PROPYLTHIOURACIL], the IC50 result (in assay [1]; on Neutrophil elastase; in assay [2]; in assay [3]; in assay [4] (cho-k1); on D(1A) dopamine receptor) was “Not Active” each time. Moreover, the IC50 entry in assay [5] is recorded as “Not Active”. For the same compound, the Ki result in assay [3] was “Not Active”.

By IC50 is commonly meant the concentration needed to halve the response being measured. For orientation: Ki means the dissociation constant of the complex between target and ligand, obtained from inhibition or displacement.
